Reference: patent publication US8741954B2, “Synergistic enhancement of calcium propionate” (ViraTox, L.L.C., priority 2007, dated 2014)

How the values were obtained:
[1] = system: Aspergillus niger (ATCC #6275), Chaetomium globosum (ATCC #6205) and Aspergillus terreus (ATCC #10690) suspensions; test: TAPPI T 487 pm-99 fungal resistance of treated paper; assay type: cell-based; settings: treated Whatman paper coupons, 28° C., 21 day test, observed weekly
Procedure: This method is used to determine the resistance of paper and paperboard to fungal growth in ideally suited controlled conditions of light, temperature, moisture, and food supply. Treated 50 mm test coupons of paper are placed on a surface of test agar, flooded with a test inoculum of fungal spores, and incubated to determine fungal resistance. The rating that is provided follows an established protocol to determine the degree of mold growth on a rating scale reported as 1) not fungal resistant; 2) moderately fungal resistant; and 3) resistant.
Challenges of treated porous surfaces, represented by selected samples of untreated paper product specified as Whatman filter paper #4 and paper product specified as Whatman filter paper #4 treated with a solution of fungicides, are exposed to designated fungal suspensions known to cause failure under certain use conditions. The test samples are prepared according to T 487 pm-99 by aseptically removing pre-sterilized 50 mm paper coupons, previously equilibrated to room temperature, and then placed in a controlled chamber at 28+/−1° C. (82.40 F) and 95%-98% RH. The chamber is fitted with a tray filled with a salt solution to maintain humidity control. The test ensues continuously for 21 days and samples are observed weekly. The panels are rated each week according to the appearance of fungal growth.
This series of tests according to the TAPPI T 487 pm-99 protocol were conducted with multiple specimens of treated and untreated (Control) paper substrates with the specified fungal species of Aspergillus niger (ATCC #6275), Chaetomium globosum (ATCC #6205), and Aspergillus terreus (ATCC #10690) suspensions. The suspensions of inoculum were harvested from 14 day potato dextrose agar cultures into sterile water, combining the culture suspensions from each fungal genus and adjusting to concentrations of 10^6/ml. Triplicate substrate samples were then prepared from sheets of cellulose fiber papers (Whatman) cut into 50 mm squares and steam sterilized. The sterilized paper coupons were immersed in a solution of each challenge solution, allowed to soak for ten minutes, removed and placed into aluminum drying trays in a drying oven for 24 hours at 67° C. The test papers were placed onto the surface of prepared agar plates containing mineral-salt agar as outlined in T 487 pm-99. Two plies of paper were treated as a single test specimen and were directly pipetted with 1 ml of fungal suspension on the surface of each test coupon. The plates were then inverted and placed into humid incubation chambers and incubated at 28° C.+/−1 C for 21 days. Observations for growth were conducted on successive weekly schedules as well as verification of test inocula to distinguish contaminants or naturally occurring molds from actual challenge organisms. Growth was defined as sporulating, hyphael appearances directly from the paper substrate. The following comparative table depicts the various solutions and resistance results: […]

[2] = system: suspension of fungal spores of Chaetomium globosum ATCC #6205, Aspergillus niger ATCC #6275 and Aspergillus terreus ATCC #10690; test: Disk diffusion method of determining susceptibility of fungi (developed from the Kirby-Bauer method); assay type: cell-based
Procedure: A disk diffusion method of determining susceptibility of fungi to Maquat 2525M 50% was developed from the Kirby-Bauer Bactericidal Disk Diffusion Method. […] This method was utilized as a screening method to achieve a rapid means of fungal inhibition after 5 days of incubation.
The inoculum was composed of a suspension of fungal spores harvested from one week cultures of ATCC #6205-Chaetomium globosum; ATCC #6275-Aspergillus niger; and, ATCC #10690-Aspergillus terreus. Once the plates were seeded with inoculum, DIFCO Concentration Disks (¼″) were impregnated with a 0.5% solution of Maquat 2525M 50%, allowed to air dry in sterile petri dishes and placed at equidistant locations on each plate. At the end of the five day incubation at 30° C., 5 plates containing four disks each were examined visually and microscopically.

SMILES	Days in Incubation [1] [days]	Resistance Grade [1]	Resistance grade of specimens ([2]; DIFCO disks impregnated with solution (Maquat 0.5%, calcium propionate 2.5%, sodium carboxymethylcellulose 0.5%, cetylpyridinium chloride 0.125%), potato dextrose agar, 5 days at 30° C.)	Growth on disks, visual and microscopic examination ([2]; after the 5 day incubation period)
CCC(=O)O [1.5% propionic acid, propionic acid]	9	Not resistant		
CCCCCCCCCCCCCCCC[n+]1ccccc1 [1.25% cetylpyridinium chloride, cetylpyridinium chloride]	15			
c1ccc2[nH]c(-c3cscn3)nc2c1 [Thiabendazole (TBZ) 1.0% Merck AgVet, Thiabendazole]	17	Moderately resistant		
CCC(=O)[O-].CCC(=O)[O-].[Ca+2] [calcium propionate]	8	Not resistant	No Resistance	occluded with profuse growth
